Assay: osmotic coefficient (dimensionless); mn = molality of the nth substance listed, in mol/kg
Conditions: 323.15 K, Liquid, Vapor Pressure Osmometer

CCOS(=O)(=O)[O-].CC[n+]1ccccc1 [1-ethylpyridinium ethyl sulfate] + CCCCO
Conditions	osmotic coefficient
m1 = 0.0564	0.758
m1 = 0.0836	0.694
m1 = 0.1146	0.652
m1 = 0.2084	0.578
m1 = 0.2995	0.536
m1 = 0.3996	0.508
m1 = 0.5015	0.495
m1 = 0.7046	0.467
m1 = 0.9934	0.44
m1 = 1.289	0.429
m1 = 1.688	0.418
m1 = 2.094	0.402
m1 = 2.493	0.388
m1 = 2.886	0.38
m1 = 3.301	0.374

CCOS(=O)(=O)[O-].CC[n+]1ccccc1 [1-ethylpyridinium ethyl sulfate] + CCCCCO
Conditions	osmotic coefficient
m1 = 0.0539	0.761
m1 = 0.0802	0.679
m1 = 0.1082	0.605
m1 = 0.2024	0.521
m1 = 0.3151	0.465
m1 = 0.4053	0.435
m1 = 0.511	0.416
m1 = 0.7996	0.376
m1 = 1.105	0.359
m1 = 1.414	0.355
m1 = 1.719	0.347
m1 = 2.23	0.335
m1 = 2.724	0.332
m1 = 3.206	0.33

CCOS(=O)(=O)[O-].CC[n+]1ccccc1 [1-ethylpyridinium ethyl sulfate] + CCCO
Conditions	osmotic coefficient
m1 = 0.0584	0.853
m1 = 0.073	0.824
m1 = 0.1074	0.768
m1 = 0.2108	0.684
m1 = 0.3057	0.635
m1 = 0.4128	0.603
m1 = 0.5105	0.586
m1 = 0.7918	0.561
m1 = 1.108	0.547
m1 = 1.347	0.54
m1 = 1.697	0.528
m1 = 2.217	0.505
m1 = 2.727	0.487
m1 = 3.22	0.474

CCOS(=O)(=O)[O-].CC[n+]1ccccc1 [1-ethylpyridinium ethyl sulfate] + CC(C)O
Conditions	osmotic coefficient
m1 = 0.0578	0.948
m1 = 0.1042	0.871
m1 = 0.2018	0.772
m1 = 0.3112	0.695
m1 = 0.3991	0.664
m1 = 0.5034	0.607
m1 = 0.6891	0.564
m1 = 0.9837	0.533
m1 = 1.287	0.506
m1 = 1.684	0.49
m1 = 2.075	0.47
m1 = 2.514	0.449
m1 = 2.915	0.432
m1 = 3.338	0.417

CCOS(=O)(=O)[O-].CC[n+]1ccccc1 [1-ethylpyridinium ethyl sulfate] + CCC(C)O
Conditions	osmotic coefficient
m1 = 0.0597	0.82
m1 = 0.0791	0.784
m1 = 0.1061	0.759
m1 = 0.1993	0.665
m1 = 0.313	0.575
m1 = 0.4056	0.515
m1 = 0.5166	0.482
m1 = 0.7016	0.452
m1 = 1.006	0.429
m1 = 1.291	0.421
m1 = 1.73	0.406
m1 = 2.104	0.392
m1 = 2.512	0.383
m1 = 2.915	0.378
m1 = 3.294	0.374

Reference: the NIST ThermoML archive (doi:10.1016/j.jct.2009.12.001)
